Laboratory results as given in patent US4725676A, “5-(3,5-disubstituted phenylazo)-2-hydroxybenzene-acetic acids and salts and lactones thereof having a potentially inhibitory effect on 15-hydroxy-prostaglandin dehydrogenase” (Pharmacia AB, priority 1984, dated 1988).

Assays:
Format in all cases: biochemical
human PGDH = biological target: T1, human PGDH (Homo sapiens, UniProt P15428); assay: Inhibitory effect on human PGDH isolated from placenta; details: radioactively labelled prostaglandin PGF 2, read-out: 50% PGDH inhibition at a concentration of
T1 construct: human PGDH isolated from placenta; from tissue; host or cells: human placenta
T1 sequence (P15428 1-266): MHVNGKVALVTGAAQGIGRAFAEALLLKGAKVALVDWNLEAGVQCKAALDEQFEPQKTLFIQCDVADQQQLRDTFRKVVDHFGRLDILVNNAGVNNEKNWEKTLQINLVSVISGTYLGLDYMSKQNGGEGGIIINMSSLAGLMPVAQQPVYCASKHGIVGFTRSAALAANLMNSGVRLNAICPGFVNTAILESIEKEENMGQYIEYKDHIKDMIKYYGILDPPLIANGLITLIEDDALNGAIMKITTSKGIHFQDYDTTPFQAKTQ
Protocol: The compound of Example 2 was studied in respect of its inhibitory effect on human PGDH isolated from placenta.
(§1) Radioactively labelled prostaglandin PGF 2 was incubated with the enzyme as according to Berry, C. N. et al., Biochem. Pharmacol. 1983, Vol. 32, p. 2863.
(§2) The compound of Example 2 was added in various concentrations, and the inhibition was measured as stated above.

cyclooxygenase = assay: Inhibition of cyclooxygenase; details: at concentrations of from 10 to 1,000 nM
PGDH from rat colon = biological target: T2, PGDH from rat colon (Rattus norvegicus, UniProt O08699); assay: Inhibition of PGDH from rat colon; details: similarly tested, read-out: 50% PGDH inhibition at
T2 construct: PGDH from rat colon; from tissue; host or cells: rat colon
T2 sequence (O08699 1-266): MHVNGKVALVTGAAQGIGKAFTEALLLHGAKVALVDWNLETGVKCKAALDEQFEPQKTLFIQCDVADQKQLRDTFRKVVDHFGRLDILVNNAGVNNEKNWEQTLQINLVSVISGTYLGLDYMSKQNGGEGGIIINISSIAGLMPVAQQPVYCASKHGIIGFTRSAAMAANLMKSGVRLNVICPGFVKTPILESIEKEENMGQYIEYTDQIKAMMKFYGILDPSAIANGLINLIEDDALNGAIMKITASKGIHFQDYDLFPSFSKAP
Protocol: as §1, §2
When similarly tested against PGDH from rat colon the compound gave 50% PGDH inhibition at 56 nM. […] It should be noted that (V) is the strongest inhibitor of this type known in the literature.

Compound | IC50 (human PGDH) [nM] | inhibition of cyclooxygenase detected (cyclooxygenase) | IC50 (PGDH from rat colon) [nM]
CCOC(=O)c1ccc(N=Nc2ccc(O)c(CC(=O)O)c2)cc1 [V, reference compound] | 290 | – | –
COC(=O)c1cc(N=Nc2ccc(O)c(CC(=O)O)c2)cc(C(=O)OC)c1 [Example 2, 5-(3,5-bis-(methoxycarbonyl)-phenylazo)-2-hydroxy-phenylacetic acid] | 28 | No inhibition whatever | 56
